# Earlier results as cited in publication PMC8801796 (Reproductive Toxicology (Elmsford, N.y.), 2022).
# Where two headings read alike, the source gives them in different places.
# Key:
# [1] = test system: monkeys, mice, rats, and rabbits; conditions: cited from earlier work
# rats [2] = conditions: cited from earlier work
# rabbits = conditions: cited from earlier work
# [3] = test system: bacterial reverse mutation; conditions: in vitro; cited from earlier work
# [4] = test system: hypoxanthine phosphoribosyltransferase (HPRT) gene; conditions: mammalian cell; cited from earlier work
# [5] = test system: Big Blue® (cII Locus) transgenic rodent; conditions: cited from earlier work
# [6] = test system: rats, rabbits, and guinea pigs; conditions: cited from earlier work
# rats [7] = conditions: rat PPND, maternal dosing GD 6 to postpartum day 20; cited from earlier work
smiles,measurement,setting,value
"NC(=O)c1nc(F)c[nH]c1=O [FAV, favipiravir]",Teratogenicity,[1],teratogenesis has been reported
CC(C)C(=O)OC[C@H]1O[C@@H](n2ccc(NO)nc2=O)[C@H](O)[C@@H]1O [molnupiravir],Developmental toxicity,"rats [2]; rats, 250 mg/kg/day",no developmental toxicity
same,Developmental toxicity,"rats [2]; rats, 500 mg/kg/day, in the presence of decreased maternal body weight gain",lower fetal body weights and delayed ossification
same,Developmental toxicity,"rats [2]; rats, 1000 mg/kg/day (highest dose)",severe manifestations of developmental toxicity (malformations and embryo-fetal lethality)
same,Developmental toxicity,"rabbits; rabbits, 400 mg/kg/day",no developmental toxicity
same,Developmental toxicity,"rabbits; rabbits, 750 mg/kg/day, in the presence of slight maternal toxicity",lower fetal body weights
same,Ames assay result,[3],positive
same,HPRT gene mutation assay result,[4],positive
same,Big Blue transgenic rodent mutagenesis assay result,[5],negative
CCC(CC)COC(=O)[C@H](C)N[P@](=O)(OC[C@H]1O[C@@](C#N)(c2ccc3c(N)ncnn23)[C@H](O)[C@@H]1O)Oc1ccccc1 [remdesivir],Effects on embryo-fetal development,"rats [2]; rats, up the highest dose tested, 20 mg/kg/day",no adverse effects on embryo-fetal development
same,Effects on embryo-fetal development,"rabbits; rabbits, up the highest dose tested, 20 mg/kg/day",no adverse effects on embryo-fetal development
"NC(=O)c1ncn([C@@H]2O[C@H](CO)[C@@H](O)[C@H]2O)n1 [RBV, ribavirin]",Teratogenicity,[6],embryocidal and/or teratogenic
CC(C)c1nc(CN(C)C(=O)N[C@H](C(=O)N[C@@H](Cc2ccccc2)C[C@H](O)[C@H](Cc2ccccc2)NC(=O)OCc2cncs2)C(C)C)cs1 [ritonavir],Cryptorchidism in rat EFD study,rats [2]; mid (35 mg/kg/day) and high (75 mg/kg/day) doses,cryptorchidism was reported
same,Fetal malformations,"rats [2]; rat EFD, doses of 15, 35, and 75 mg/kg",no evidence of fetal malformations
same,Developmental toxicity findings in EFD studies,"rats [2]; rats and/or rabbits, only at the highest dose evaluated in each species, maternally toxic doses","higher resorptions, lower fetal body weight, ossification delays, and increased skeletal variations"
same,Fetal malformations,"rabbits; rabbit EFD, doses of 25, 50, and 110 mg/kg/day",no evidence of fetal malformations
same,Cryptorchidism in postnatal developing rats,rats [7],no reports of cryptorchidism
